# In ChEMBL document CHEMBL1122204 (J Med Chem, 1982):
# Assay: Approximate pKa value of compound was determined
# Format: physicochemical
# Details: not given
row,Approx. pKa,SMILES
1,-3.8,CC/C(=C(\c1ccccc1)c1ccc(OCCn2cccc2)cc1)c1ccccc1

# Same assay, conditions: read-out: Approx. pKa
row,pKa,SMILES
1,11.3,CC/C(=C(\c1ccccc1)c1ccc(OCCN2CCCC2)cc1)c1ccccc1
2,9.8,CC/C(=C(\c1ccccc1)c1ccc(OCCN2CCN(C)CC2)cc1)c1ccccc1
3,8.7,CC/C(=C(\c1ccccc1)c1ccc(OCCN2CCOCC2)cc1)c1ccccc1
4,11.2,CC/C(=C(\c1ccccc1)c1ccc(OCCN2CCCCC2)cc1)c1ccccc1

# Further lines, the compound ahead of its results:
row,SMILES,pKa
1,CC/C(=C(\c1ccccc1)c1ccc(OCCCN2CCCC2)cc1)c1ccccc1,11.3
2,CC/C(=C(\c1ccccc1)c1ccc(OCCN=C(N)N)cc1)c1ccccc1,13.7
3,CC/C(=C(\c1ccccc1)c1ccc(OCCN(CC)CC)cc1)c1ccccc1,10.9
4,CC/C(=C(\c1ccccc1)c1ccc(OCCN(C)C)cc1)c1ccccc1 [TAMOXIFEN],10.8
